From ChEMBL document CHEMBL2401618 (Eur J Med Chem, 2013)

Legend:
[1] = test system: Trypanosoma brucei brucei; assay: Antitrypanosomal activity against bloodstream stage of Trypanosoma brucei brucei 93 assessed as parasite growth inhibition at 50 ug/ml after 72 hrs by resazurin reduction assay relative to control; assay type: functional; conditions: Trypanosoma brucei, 93, 72 h; read-out: GI
Leishmania donovani = assay: Leishmanicidal activity against promastigote stage of Leishmania donovani LV9 assessed as cell viability by MTT assay; assay type: functional, organism-based
Plasmodium falciparum [2] = assay: Antiplasmodial activity against chloroquine-resistant Plasmodium falciparum FcB1/Columbia infected in human erythrocytes assessed as parasite growth inhibition at 50 ug/ml after 24 hrs by [3H]-hypoxanthine incorporation assay relative to control; assay type: functional; conditions: read-out: GI
Plasmodium falciparum [3] = assay: Antiplasmodial activity against chloroquine-resistant Plasmodium falciparum FcB1/Columbia infected in human erythrocytes assessed as parasite growth inhibition at 10 ug/ml after 24 hrs by [3H]-hypoxanthine incorporation assay relative to control; assay type: functional; conditions: read-out: GI
[4] = test system: Trypanosoma brucei brucei; assay: Antitrypanosomal activity against bloodstream stage of Trypanosoma brucei brucei 93 assessed as parasite growth inhibition at 10 ug/ml after 72 hrs by resazurin reduction assay relative to control; assay type: functional; conditions: Trypanosoma brucei, 93, 72 h; read-out: GI
[5] = test system: Trypanosoma brucei brucei; assay: Antitrypanosomal activity against bloodstream stage of Trypanosoma brucei brucei 93 assessed as parasite growth inhibition at 1 ug/ml after 72 hrs by resazurin reduction assay relative to control; assay type: functional; conditions: Trypanosoma brucei, 93, 72 h; read-out: GI
Plasmodium falciparum [6] = assay: Antiplasmodial activity against chloroquine-resistant Plasmodium falciparum FcB1/Columbia infected in human erythrocytes assessed as parasite growth inhibition at 1 ug/ml after 24 hrs by [3H]-hypoxanthine incorporation assay relative to control; assay type: functional; conditions: read-out: GI
Vero = assay: Cytotoxicity against african green monkey Vero cells assessed as growth inhibition after 72 hrs by MTS assay; assay type: cell-based; conditions: Chlorocebus sabaeus
[7] = Safety index, ratio of IC50 for african green monkey Vero cells to IC50 for promastigote stage of Leishmania donovani LV9; assay type: toxicity, cell-based; conditions: read-out: Ratio IC50
[8] = test system: Trypanosoma brucei brucei; assay: Antitrypanosomal activity against bloodstream stage of Trypanosoma brucei brucei 93 assessed as parasite growth inhibition after 72 hrs by resazurin reduction assay; assay type: functional, organism-based; conditions: Trypanosoma brucei, 93, 72 h
[9] = Safety index, ratio of IC50 for african green monkey Vero cells to IC50 for bloodstream stage of Trypanosoma brucei brucei 93; assay type: toxicity, cell-based; conditions: read-out: Ratio IC50
Plasmodium falciparum [10] = assay: Antiplasmodial activity against chloroquine-resistant Plasmodium falciparum FcB1/Columbia infected in human erythrocytes assessed as parasite growth inhibition after 24 hrs by [3H]-hypoxanthine incorporation assay; assay type: functional, organism-based
[11] = Safety index, ratio of IC50 for african green monkey Vero cells to IC50 for chloroquine-resistant Plasmodium falciparum FcB1/Columbia infected in human erythrocytes; assay type: toxicity, cell-based; conditions: read-out: Ratio IC50

| Compound | inhibition of growth at 50 µg/mL [1] [%] | IC50 (Leishmania donovani) [µM] | inhibition of growth at 50 µg/mL (Plasmodium falciparum [2]) [%] | inhibition of growth at 10 µg/mL (Plasmodium falciparum [3]) [%] | inhibition of growth at 10 µg/mL [4] [%] | inhibition of growth at 1 µg/mL [5] [%] | inhibition of growth at 1 µg/mL (Plasmodium falciparum [6]) [%] | IC50 (Vero) [µM] | selectivity ratio [7] | IC50 [8] [µM] | selectivity ratio [9] | IC50 (Plasmodium falciparum [10]) [µM] | selectivity ratio [11] |
| --- | --- | --- | --- | --- | --- | --- | --- | --- | --- | --- | --- | --- | --- |
| CC(C)=CCC[C@]1(C)[C@@H](CC=C(C)C)C[C@]2(CC=C(C)C)C(=O)[C@@]1(CC=C(C)C)C(=O)C(C(=O)c1ccc(OC(=O)C=C(C)C)c(OC(=O)C=C(C)C)c1)=C2O | 96.1 | 28.9 | 94.9 | 31.6 | 92 | 10.5 | 3.6 |  |  |  |  |  |  |
| CCOc1ccc(C(=O)C2=C(O)[C@]3(CC=C(C)C)C[C@H](CC=C(C)C)[C@@](C)(CCC=C(C)C)[C@](CC=C(C)C)(C2=O)C3=O)cc1O [14-O-ETHYL-GUTTIFERONE A] | 93 | 16.2 | 99.7 | 28.2 | 94.7 | 15.8 | 14.9 |  |  |  |  |  |  |
| COc1ccc(C(=O)C2=C(O)[C@]3(CC=C(C)C)C[C@H](CC=C(C)C)[C@@](C)(CCC=C(C)C)[C@](CC=C(C)C)(C2=O)C3=O)cc1OC | 94 | 12.2 | 99.3 | 59.2 | 96.3 | 17.7 | 13.8 | 21.8 | 1.8 |  |  |  |  |
| CC(C)=CCC[C@]1(C)[C@@H](CC=C(C)C)C[C@]2(CC=C(C)C)C(=O)[C@@]1(CC=C(C)C)C(=O)C(C(=O)c1ccc(OCc3ccccc3)c(OCc3ccccc3)c1)=C2O | 94.9 | > 100 | 99.1 | 38.6 | 94.8 | 32.8 | 7.07 | 32.6 | < 0.3 | 3.23 | 10.1 |  |  |
| CC(C)=CCC[C@]1(C)[C@@H](CC=C(C)C)C[C@]2(CC=C(C)C)C(=O)[C@@]1(CC=C(C)C)C(=O)C(C(=O)c1ccc(OCCC3OCCO3)c(O)c1)=C2O [14-O-2-ETHYL-1,3-DIOXOLANE-GUTTIFERONE A] | 94.9 | 22.2 | 99.6 | 49.1 | 96.4 | 8.18 | 15.3 |  |  |  |  |  |  |
| C[C@@H]1[C@H](O)[C@@H](C)/C=C/C=C/C=C/C=C/C=C/C=C/C=C/[C@H](O[C@@H]2O[C@H](C)[C@@H](O)[C@H](N)[C@@H]2O)C[C@@H]2O[C@](O)(C[C@@H](O)C[C@@H](O)[C@H](O)CC[C@@H](O)C[C@@H](O)CC(=O)O[C@H]1C)C[C@H](O)[C@H]2C(=O)O [AMPHOTERICIN B] |  | 0.03 |  |  |  |  |  | 0.33 | 11 |  |  |  |  |
| CCCCCCCCCCCCCCCCOP(=O)([O-])OCC[N+](C)(C)C [MILTEFOSINE] |  | 16.2 |  |  |  |  |  | 65 | 4 |  |  |  |  |
| CCN(CC)CCCC(C)Nc1ccnc2cc(Cl)ccc12 (stereo not given) [CHLOROQUINE] |  |  |  |  |  |  |  | 21 |  |  |  |  |  |
| C=CCOc1ccc(C(=O)C2=C(O)[C@]3(CC=C(C)C)C[C@H](CC=C(C)C)[C@@](C)(CCC=C(C)C)[C@](CC=C(C)C)(C2=O)C3=O)cc1O [14-O-ALLYL-GUTTIFERONE A] | 92.6 | 15.7 | 99.5 | 11 | 95.1 | 20.3 | 0.83 |  |  |  |  |  |  |
| COCOc1ccc(C(=O)C2=C(O)[C@]3(CC=C(C)C)C[C@H](CC=C(C)C)[C@@](C)(CCC=C(C)C)[C@](CC=C(C)C)(C2=O)C3=O)cc1O [14-O-METHOXYMETHYL-GUTTIFERONE A] | 92.5 | 14.6 | 99.6 | 74.8 | 96.3 | 13.2 | 10.8 | 13 | 0.9 |  |  | 4.84 | 2.7 |
| COCOc1ccc(C(=O)C2=C(O)[C@]3(CC=C(C)C)C[C@H](CC=C(C)C)[C@@](C)(CCC=C(C)C)[C@](CC=C(C)C)(C2=O)C3=O)cc1OCOC | 93.2 | 23.3 | 99.5 | 20.9 | 95.5 | 6.82 | 7.94 |  |  |  |  |  |  |
| COc1ccc([N+](=O)[O-])cc1COc1ccc(C(=O)C2=C(O)[C@]3(CC=C(C)C)C[C@H](CC=C(C)C)[C@@](C)(CCC=C(C)C)[C@](CC=C(C)C)(C2=O)C3=O)cc1OCc1cc([N+](=O)[O-])ccc1OC | 93 | > 100 | 79.1 | 20.1 | 51.9 | 9.11 | 13.7 |  |  |  |  |  |  |
| CC(C)=CCC[C@]1(C)[C@@H](CC=C(C)C)C[C@]2(CC=C(C)C)C(=O)[C@@]1(CC=C(C)C)C(=O)C(C(=O)c1ccc(OCc3ccccc3)c(O)c1)=C2O [14-O-BENZYL-GUTTIFERONE A] | 95 | 22.4 | 99.1 | 49 | 96 | 23.6 | 16.1 |  |  |  |  |  |  |
| CC(C)=CCC[C@]1(C)[C@@H](CC=C(C)C)C[C@]2(CC=C(C)C)C(=O)[C@@]1(CC=C(C)C)C(=O)C(C(=O)c1ccc(OC(C)C)c(O)c1)=C2O [14-O-ISOPROPYL-GUTTIFERONE A] | 94.4 | 18 | 99.8 | 25.6 | 95.7 | 15.4 | 14.7 |  |  |  |  |  |  |
| COc1ccc([N+](=O)[O-])cc1COc1ccc(C(=O)C2=C(O)[C@]3(CC=C(C)C)C[C@H](CC=C(C)C)[C@@](C)(CCC=C(C)C)[C@](CC=C(C)C)(C2=O)C3=O)cc1O [14-O-2-METHOXY-5-NITROBENZYL-GUTTIFERONE A] | 96.1 | > 100 | 97.4 | 14.6 | 88.9 | 8.4 | 6.06 |  |  |  |  |  |  |
| CCCOc1ccc(C(=O)C2=C(O)[C@]3(CC=C(C)C)C[C@H](CC=C(C)C)[C@@](C)(CCC=C(C)C)[C@](CC=C(C)C)(C2=O)C3=O)cc1O [14-O-PROPYL-GUTTIFERONE A] | 94.2 | 20.7 | 99.6 | 13.4 | 94.6 | 5.33 | 2.36 |  |  |  |  |  |  |
| C#CCOc1ccc(C(=O)C2=C(O)[C@]3(CC=C(C)C)C[C@H](CC=C(C)C)[C@@](C)(CCC=C(C)C)[C@](CC=C(C)C)(C2=O)C3=O)cc1O [14-O-PROPARGYL-GUTTIFERONE A] | 92.1 | 18 | 99.5 | 49.4 | 96 | 20.9 | 6.95 |  |  |  |  |  |  |
